{"source": "patent US7855177B1", "about": "“Methods and kits for preventing hypoglycemia” (Cebix Inc., priority 2009, dated 2010)", "key": {"[1]": {"system": "type 1 diabetes patients with peripheral neuropathy", "experiment": "Phase II trial: hypoglycemic events and hypoglycemic coma", "assay_type": "in vivo, human", "experimental": "The study was a multicenter, double-blind, randomized, placebo-controlled phase II trial comparing the effect of subcutaneous injection (S.C.) of 500 nmoL/24 h (1.5 mg) C-peptide; 1,500 nmoL/24 h (4.5 mg) C-peptide and placebo treatment for 6 months in type 1 diabetes patients with peripheral neuropathy.\nHypoglycemic events are common events in insulin-treated patients. For practical reasons only severe hypoglycemic events, i.e., if the patient required assistance from another person in order to regain normoglycaemia, were reported as an AE."}, "[2]": {"experiment": "Phase II trial: C-peptide plasma levels (time-resolved fluoroimmunoassay)", "assay_type": "in vivo, human", "experimental": "The sampling of C-peptide in plasma at visits 2 and 4 coincided with the clinical visit and the time between the most recent administration of the trial drug and sampling varied between patients. Thereby, the result of C-peptide concentrations in plasma was less suitable for pharmacokinetic evaluations, but the results contributed to the assessment of treatment compliance.\nC-peptide plasma levels were measured at baseline, and after 3 and 6 months of treatment. Analysis was performed by the Department of Clinical Chemistry Karolinska University Hospital, Solna using a time-resolved fluoroimmunoassay (AutoDelfia, Wallac Oy, Turku, Finland). […] The plasma levels of C-peptide attained in this study ranged from about 0.2 nM to a maximum of about 6 nM in the high dose group.\nC-peptide plasma levels were also measured pre-dosing in the morning in 22 randomly selected patients at the Karolinska Hospital after 4.5 months of study treatment (visit 3). As compared to the C-peptide concentration at baseline, the C-peptide plasma level at this visit was unchanged in the placebo-treated patients (0±0.008 nmoL/L; n=10), increased by 0.045±0.092 nmoL/L in the low-dose C-peptide group (n=8) and increased by 0.13±0.083 nmoL/L in the high-dose C-peptide group (n=4)."}, "[3]": {"system": "type 1 diabetes patients with peripheral neuropathy", "experiment": "Phase II trial: ECG and vital signs", "assay_type": "in vivo, human", "conditions": "for BPd (diastolic blood pressure), change from baseline to 6 months treatment, Mean ± SD / BPd (diastolic blood pressure), change from baseline to 6 months treatment, Median / BPs (systolic blood pressure), change from baseline to 6 months treatment, Mean ± SD / BPs (systolic blood pressure), change from baseline to 6 months treatment, Median / Heart rate, change from baseline to 6 months treatment, Mean ± SD / Heart rate, change from baseline to 6 months treatment, Median / QTc-interval Bazett, change from baseline to 6 months treatment, Mean ± SD / QTc-interval Bazett, change from baseline to 6 months treatment, Median / QTc-interval Fredericia, change from baseline to 6 months treatment, Mean ± SD / QTc-interval Fredericia, change from baseline to 6 months treatment, Median: PP data set", "experimental": "ECG was performed at baseline and at end of study, i.e., visit 4 (at 6 months±2 weeks from the S/B visit)."}, "[4]": {"system": "C-peptide antibodies", "experiment": "Phase II trial: antibody formation against C-peptide (ELISA)", "assay_type": "in vivo, human", "conditions": "baseline and after 3 and 6 months of C-peptide treatment", "source_text": "C-peptide plasma samples, C-peptide antibodies, and markers for atherosclerosis were processed (centrifuged, etc.) and stored frozen until transport to a central lab. HLA typing samples were shipped to a central lab for processing and storage until analysis. All samples there were labelled uniquely, including information about screening number and sample time.\nSamples for the assessment of antibody formation were collected at baseline and at visits 2 and 4. An appropriate enzyme-linked immunoabsorbant assay (ELISA) method was developed and assessments carried out."}, "[5]": {"system": "type 1 diabetes patients with peripheral neuropathy", "conditions": "in vivo"}, "[6]": {"conditions": "S.C.; cited from earlier work"}, "[7]": {"conditions": "High-dose C-peptide, Metabolism and nutritional disorders"}, "[8]": {"conditions": "Low-dose C-peptide, Metabolism and nutritional disorders"}}}
{"molecule": "CC(C)C[C@H](NC(=O)[C@H](C)NC(=O)[C@H](CC(C)C)NC(=O)[C@@H]1CCCN1C(=O)[C@H](CCC(N)=O)NC(=O)[C@H](CC(C)C)NC(=O)[C@H](CO)NC(=O)CNC(=O)[C@H](C)NC(=O)CNC(=O)[C@@H]1CCCN1C(=O)CNC(=O)CNC(=O)CNC(=O)[C@H](CC(C)C)NC(=O)[C@H](CCC(=O)O)NC(=O)[C@@H](NC(=O)[C@H](CCC(N)=O)NC(=O)CNC(=O)[C@@H](NC(=O)[C@H](CCC(N)=O)NC(=O)[C@H](CC(C)C)NC(=O)[C@H](CC(=O)O)NC(=O)[C@H](CCC(=O)O)NC(=O)[C@H](C)NC(=O)[C@@H](N)CCC(=O)O)C(C)C)C(C)C)C(=O)N[C@@H](CCC(=O)O)C(=O)NCC(=O)N[C@@H](CO)C(=O)N[C@@H](CC(C)C)C(=O)N[C@@H](CCC(N)=O)C(=O)O", "note": "[C-peptide]", "values": [{"measurement": "hypoglycemic coma episodes requiring external assistance", "setting": "[1]; C-peptide treated group", "value": "Two"}, {"measurement": "occurrences of hypoglycemic coma", "setting": "[1]; C-peptide treated groups, 6 months, none in placebo group", "value": "four"}, {"measurement": "Blood glucose fluctuation, number of AEs", "setting": "[1]; [7]", "value": 0}, {"measurement": "Hyperglycemia, number of AEs", "setting": "[1]; [7]", "value": 1}, {"measurement": "Hyperlipidemia, number of AEs", "setting": "[1]; [7]", "value": 0}, {"measurement": "Hypoglycemia, number of AEs", "setting": "[1]; [7]", "value": 5}, {"measurement": "Hypoglycemia, number of AEs probably/possibly related to study drug", "setting": "[1]; [7]", "value": 1}, {"measurement": "Hypoglycemic coma, number of AEs", "setting": "[1]; [7]", "value": 2}, {"measurement": "Hypothyroidism, number of AEs", "setting": "[1]; [7]", "value": 0}, {"measurement": "Increased appetite, number of AEs", "setting": "[1]; [7]", "value": 0}, {"measurement": "Insulin sensitivity, number of AEs", "setting": "[1]; [7]", "value": 0}, {"measurement": "Vitamin B12 deficiency, number of AEs", "setting": "[1]; [7]", "value": 1}, {"measurement": "Blood glucose fluctuation, number of AEs", "setting": "[1]; [8]", "value": 0}, {"measurement": "Hyperglycemia, number of AEs", "setting": "[1]; [8]", "value": "1 (1)"}, {"measurement": "Hyperglycemia, number of AEs probably/possibly related to study drug", "setting": "[1]; [8]", "value": "1 (1)"}, {"measurement": "Hyperlipidemia, number of AEs", "setting": "[1]; [8]", "value": 1}, {"measurement": "Hypoglycemia, number of AEs", "setting": "[1]; [8]", "value": 2}, {"measurement": "Hypoglycemia, number of AEs probably/possibly related to study drug", "setting": "[1]; [8]", "value": 1}, {"measurement": "Hypoglycemic coma, number of AEs", "setting": "[1]; [8]", "value": 2}, {"measurement": "Hypothyroidism, number of AEs", "setting": "[1]; [8]", "value": 0}, {"measurement": "Increased appetite, number of AEs", "setting": "[1]; [8]", "value": 0}, {"measurement": "Insulin sensitivity, number of AEs", "setting": "[1]; [8]", "value": "1 (1)"}, {"measurement": "Insulin sensitivity, number of AEs probably/possibly related to study drug", "setting": "[1]; [8]", "value": "1 (1)"}, {"measurement": "Vitamin B12 deficiency, number of AEs", "setting": "[1]; [8]", "value": 0}, {"measurement": "risk of hypoglycemic coma", "setting": "[1]; subpopulation of patients, C-peptide replacement therapy", "value": "increased risk of hypoglycemic coma"}, {"measurement": "expected concentrations relative to the low dose regimen", "setting": "[2]; high dose 1,500 nmoL/24 h S.C., expected", "value": "~3", "unit": "times"}, {"measurement": "increase of pre-dosing morning C-peptide plasma level vs baseline", "setting": "[2]; high-dose C-peptide group, n=4, 4.5 months (visit 3)", "value": "0.13 ± 0.083", "unit": "nmol/L"}, {"measurement": "expected physiological mean plasma concentration", "setting": "[2]; low dose 500 nmoL/24 h S.C., 4 times daily, expected", "value": "~1", "unit": "nmoL/L"}, {"measurement": "increase of pre-dosing morning C-peptide plasma level vs baseline", "setting": "[2]; low-dose C-peptide group, n=8, 4.5 months (visit 3)", "value": "0.045 ± 0.092", "unit": "nmol/L"}, {"measurement": "BPd (diastolic blood pressure), change from baseline to 6 months treatment, Mean ± SD", "setting": "[3]; High-dose C-peptide, n = 39", "value": "−2.6 ± 8.0", "unit": "mm Hg"}, {"measurement": "BPd (diastolic blood pressure), change from baseline to 6 months treatment, Median", "setting": "[3]; High-dose C-peptide, n = 39", "value": "−1.0", "unit": "mm Hg"}, {"measurement": "BPs (systolic blood pressure), change from baseline to 6 months treatment, Mean ± SD", "setting": "[3]; High-dose C-peptide, n = 39", "value": "−8.8 ± 10.0", "unit": "mm Hg"}, {"measurement": "BPs (systolic blood pressure), change from baseline to 6 months treatment, Median", "setting": "[3]; High-dose C-peptide, n = 39", "value": "−8.0", "unit": "mm Hg"}, {"measurement": "Heart rate, change from baseline to 6 months treatment, Mean ± SD", "setting": "[3]; High-dose C-peptide, n = 39", "value": "−3.2 ± 10.0", "unit": "bpm"}, {"measurement": "Heart rate, change from baseline to 6 months treatment, Median", "setting": "[3]; High-dose C-peptide, n = 39", "value": "−4.0", "unit": "bpm"}, {"measurement": "QTc-interval Bazett, change from baseline to 6 months treatment, Mean ± SD", "setting": "[3]; High-dose C-peptide, n = 39", "value": "-4.5 ± 20.3", "unit": "ms"}, {"measurement": "QTc-interval Bazett, change from baseline to 6 months treatment, Median", "setting": "[3]; High-dose C-peptide, n = 39", "value": 0.0, "unit": "ms"}, {"measurement": "QTc-interval Fredericia, change from baseline to 6 months treatment, Mean ± SD", "setting": "[3]; High-dose C-peptide, n = 39", "value": "-0.5 ± 16.2", "unit": "ms"}, {"measurement": "QTc-interval Fredericia, change from baseline to 6 months treatment, Median", "setting": "[3]; High-dose C-peptide, n = 39", "value": 0.0, "unit": "ms"}, {"measurement": "BPd (diastolic blood pressure), change from baseline to 6 months treatment, Mean ± SD", "setting": "[3]; Low-dose C-peptide, n = 53", "value": "−2.7 ± 8.2", "unit": "mm Hg"}, {"measurement": "BPd (diastolic blood pressure), change from baseline to 6 months treatment, Median", "setting": "[3]; Low-dose C-peptide, n = 53", "value": "−1.0", "unit": "mm Hg"}, {"measurement": "BPs (systolic blood pressure), change from baseline to 6 months treatment, Mean ± SD", "setting": "[3]; Low-dose C-peptide, n = 53", "value": "−2.1 ± 12.8", "unit": "mm Hg"}, {"measurement": "BPs (systolic blood pressure), change from baseline to 6 months treatment, Median", "setting": "[3]; Low-dose C-peptide, n = 53", "value": "−1.0", "unit": "mm Hg"}, {"measurement": "Heart rate, change from baseline to 6 months treatment, Mean ± SD", "setting": "[3]; Low-dose C-peptide, n = 53", "value": "−0.9 ± 8.2", "unit": "bpm"}, {"measurement": "Heart rate, change from baseline to 6 months treatment, Median", "setting": "[3]; Low-dose C-peptide, n = 53", "value": "−2.0", "unit": "bpm"}, {"measurement": "QTc-interval Bazett, change from baseline to 6 months treatment, Mean ± SD", "setting": "[3]; Low-dose C-peptide, n = 53", "value": "-0.1 ± 17.5", "unit": "ms"}, {"measurement": "QTc-interval Bazett, change from baseline to 6 months treatment, Median", "setting": "[3]; Low-dose C-peptide, n = 53", "value": 0.0, "unit": "ms"}, {"measurement": "QTc-interval Fredericia, change from baseline to 6 months treatment, Mean ± SD", "setting": "[3]; Low-dose C-peptide, n = 53", "value": "0.9 ± 14.1", "unit": "ms"}, {"measurement": "QTc-interval Fredericia, change from baseline to 6 months treatment, Median", "setting": "[3]; Low-dose C-peptide, n = 53", "value": 1.3, "unit": "ms"}, {"measurement": "changes in heart rate, blood pressure, and QTc", "setting": "[3]; any of the three treatment groups", "value": "nor were there any significant changes"}, {"measurement": "decrease in systolic blood pressure compared to the low-dose C-peptide group", "setting": "[3]; high-dose C-peptide group, p<0.004, not different from placebo", "value": "significantly greater decrease"}, {"measurement": "reactivity (antibodies) to C-peptide", "setting": "[4]", "value": "no or very weak reactivity"}, {"measurement": "AEs possibly/probably related to the study drug", "setting": "[5]", "value": 8}, {"measurement": "Acute HIV infection, number of AEs", "setting": "[5]", "value": 1}, {"measurement": "Infections and infestations: Acute HIV infection, treatment emergent AE intensity (number of incidences)", "setting": "[5]", "value": "M (1)"}, {"measurement": "Infections and infestations: Herpes zoster, treatment emergent AE intensity (number of incidences)", "setting": "[5]", "value": "M (1)"}, {"measurement": "Nasopharyngitis, number of AEs", "setting": "[5]", "value": 23}, {"measurement": "bioavailability of subcutaneously administered C-peptide", "setting": "[6]", "value": "approximately 80%"}]}
